Source: patent US12173018B2, “Penicillin-binding protein inhibitors” (priority 2018, dated 2024)
Values after ≈ are worked out from the molar mass of the structure shown. Structures can show the parent of a compound that is named as a salt. Where two headings read alike, the source gives them in different places.

Assays:
[1] = target: E. coli PBP3 (Escherichia coli (strain K12), UniProt P0AD68); test: E. coli PBP3 Bocillin-FL fluorescence polarization competition binding assay
Summary of the method: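 Steps: purified PBP (1.5 μM final) mixed with compound (0–1000 μM) in 50 mM Hepes pH 8.0, 300 mM NaCl, 5% glycerol; Bocillin-FL added to 0.1 μM; FP (ex 490, em 520 nm) followed for 60 min. Concentration reducing Bocillin-FL binding reported as EC50.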

[2] = system: engineered strain of Escherichia coli harboring CTX-M15; test: microbe, parasite or virus in culture; assay type: cell-based; details: Escherichia coli, read-out: Microbiological Activity (MIC in mg/L), E. coli DH5α/pLBII-CTX-M15, engineered strain producing CTX-M15
[3] = target: E. coli PBP1a (Escherichia coli (strain K12), UniProt P02918); test: Radioligand competition binding assay with 14C-labeled boronic acid probe, PBP1a
Source text: To determine the ability of boronic acid-based test PBP inhibitors to bind Penicillin Binding Proteins (PBPs), a radio-labelled boronic acid PBP inhibitor
[drawing 751] was used in competition binding assays to determine boronic acid PBP inhibitor binding to PBP1a or PBP1b from Escherichia coli. PBP1a and PBP1b were purified as described previously (Bertsche, U.; et al., J. Biol. Chem. 2005, 280 (45), 38096-38101; Born, P.; et al., J. Biol. Chem. 2006. 281 (37), 26985-26993). To establish assay conditions for competition binding, an enzyme titration/saturation binding experiment was performed. Saturation binding was performed in a buffer comprised of 20 mM Tris (pH 7.5), 500 mM NaCl and 0.1% (v/v) TritonX-100, with PBP1a/PBP1b at a final concentration of 0.1 μM and Compound A at final concentrations ranging from 0-100 μM. Mixtures were incubated for 60 minutes, then applied to Zeba Spin Desalting columns or plates (ThermoFisher Scientific) and centrifuged at 1000-1500×g for 2 minutes. The flow through, containing PBP bound with Compound A, was recovered and 100 μL mixed with 5 mL of UltimaGold liquid scintillation cocktail (Perkin Elmer), and the radioactivity counted using a Beckman Coulter LS 6500 Multipurpose scintillation counter. PBP binding of Compound A approached saturation at 20 μM of ^14C-labeled probe. The competition binding assay was validated using the beta-lactam ampicillin, with Compound A at a final concentration of 20 μM, PBP1a/PBP1b at a final concentration of 0.1 μM. PBP1a/PBP1b was incubated with ampicillin in a 96-well microplate for 60 minutes, then Compound A was added and the mixtures incubated for an additional 60 minutes. The mixtures were then applied to Zeba Spin desalting plates and centrifuged at 1000×g for 2 minutes. The flow through was recovered and 100 μl mixed with 5 ml of UltimaGold liquid scintillation cocktail and the radioactivity counted. […] Binding assays with boronic acid PBP inhibitors were performed in an identical fashion. The potency of boronic acid PBP inhibitors was reported as the EC50 value.

[4] = system: E. coli DH5α empty pLBII vector control strain; test: microbe, parasite or virus in culture; assay type: cell-based, Escherichia coli; details: Escherichia coli, read-out: Microbiological Activity (MIC in mg/L), E. coli DH5α/pLBII
Summary of the method: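 Broth microdilution in cation-supplemented Mueller-Hinton broth used a starting inoculum of 5×10^5 CFU/mL of E. coli DH5α carrying empty pLBII vector. Plates were incubated 16–20 h at 37 °C. MIC was read visually as the lowest concentration showing no growth.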

[5] = system: E. coli AG100; test: Broth microdilution MIC, E. coli AG100 (wild-type parent); assay type: cell-based; details: Escherichia coli; wild-type parent E. coli AG100, broth microdilution; read-out: MIC E. coli AG100
Summary of the method: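 Broth microdilution in cation-supplemented Mueller-Hinton broth, 2-fold serial compound dilutions, inoculum 5×10^5 CFU/mL from 3-5 h log culture.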

[6] = system: E. coli AG100A; test: microbe, parasite or virus in culture; assay type: cell-based; details: Escherichia coli, read-out: MIC E. coli AG100A
Summary of the method: (§1)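 Visual MIC readout after 16-20 h at 37° C in CLSI-format microdilution. Compounds tested as 2-fold series against a 5×10^5 CFU/mL inoculum in cation-supplemented Mueller-Hinton broth.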

[7] = system: K. pneumoniae UMM; test: microbe, parasite or virus in culture; assay type: cell-based; details: Klebsiella pneumoniae; K. pneumoniae UMM producing SHV-5 and KPC-2; read-out: MIC K. pneumoniae UMM
Summary of the method: as §1

[8] = system: E. coli 901C; test: microbe, parasite or virus in culture; assay type: cell-based; details: Escherichia coli; hyper-permeable E. coli 901C, broth microdilution; read-out: MIC E. coli 901C
Summary of the method: as §1

[9] = target: E. coli PBP1b (Escherichia coli (strain K12), UniProt P02919); test: Radioligand competition binding assay with 14C-labeled boronic acid probe, PBP1b
[10] = system: E. coli ATCC 25922; test: Broth microdilution MIC, E. coli ATCC 25922; assay type: cell-based; details: Escherichia coli, ATCC25922; E. coli ATCC 25922, broth microdilution; read-out: MIC E. coli 25922
Summary of the method: as §1

[11] = fluorescence polarization competition binding with Bocillin-FL, read-out: E. coli K12 PBP3 Potency

Sequence of E. coli PBP1b (P02919 whole entry): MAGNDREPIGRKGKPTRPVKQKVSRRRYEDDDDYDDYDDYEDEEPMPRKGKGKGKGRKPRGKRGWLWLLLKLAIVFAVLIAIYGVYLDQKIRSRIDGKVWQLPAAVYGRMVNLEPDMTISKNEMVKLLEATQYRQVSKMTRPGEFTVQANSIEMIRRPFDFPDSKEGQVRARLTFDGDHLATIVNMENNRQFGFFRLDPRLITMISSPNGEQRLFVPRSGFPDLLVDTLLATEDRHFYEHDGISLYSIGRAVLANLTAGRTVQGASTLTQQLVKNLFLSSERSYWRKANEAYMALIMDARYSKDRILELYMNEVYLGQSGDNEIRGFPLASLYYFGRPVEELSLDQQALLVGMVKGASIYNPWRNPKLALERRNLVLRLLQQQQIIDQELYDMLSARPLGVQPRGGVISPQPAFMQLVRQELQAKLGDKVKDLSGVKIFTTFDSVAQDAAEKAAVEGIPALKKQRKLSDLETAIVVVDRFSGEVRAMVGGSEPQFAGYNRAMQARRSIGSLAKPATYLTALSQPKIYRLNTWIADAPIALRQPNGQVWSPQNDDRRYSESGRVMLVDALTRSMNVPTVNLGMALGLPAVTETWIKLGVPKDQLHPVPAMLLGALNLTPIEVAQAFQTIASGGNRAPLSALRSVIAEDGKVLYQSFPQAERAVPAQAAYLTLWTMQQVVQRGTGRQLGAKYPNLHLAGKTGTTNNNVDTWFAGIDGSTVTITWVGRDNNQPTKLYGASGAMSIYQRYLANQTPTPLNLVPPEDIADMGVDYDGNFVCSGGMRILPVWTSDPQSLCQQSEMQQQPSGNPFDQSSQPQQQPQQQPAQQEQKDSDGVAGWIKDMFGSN
Sequence of E. coli PBP1a (P02918 whole entry): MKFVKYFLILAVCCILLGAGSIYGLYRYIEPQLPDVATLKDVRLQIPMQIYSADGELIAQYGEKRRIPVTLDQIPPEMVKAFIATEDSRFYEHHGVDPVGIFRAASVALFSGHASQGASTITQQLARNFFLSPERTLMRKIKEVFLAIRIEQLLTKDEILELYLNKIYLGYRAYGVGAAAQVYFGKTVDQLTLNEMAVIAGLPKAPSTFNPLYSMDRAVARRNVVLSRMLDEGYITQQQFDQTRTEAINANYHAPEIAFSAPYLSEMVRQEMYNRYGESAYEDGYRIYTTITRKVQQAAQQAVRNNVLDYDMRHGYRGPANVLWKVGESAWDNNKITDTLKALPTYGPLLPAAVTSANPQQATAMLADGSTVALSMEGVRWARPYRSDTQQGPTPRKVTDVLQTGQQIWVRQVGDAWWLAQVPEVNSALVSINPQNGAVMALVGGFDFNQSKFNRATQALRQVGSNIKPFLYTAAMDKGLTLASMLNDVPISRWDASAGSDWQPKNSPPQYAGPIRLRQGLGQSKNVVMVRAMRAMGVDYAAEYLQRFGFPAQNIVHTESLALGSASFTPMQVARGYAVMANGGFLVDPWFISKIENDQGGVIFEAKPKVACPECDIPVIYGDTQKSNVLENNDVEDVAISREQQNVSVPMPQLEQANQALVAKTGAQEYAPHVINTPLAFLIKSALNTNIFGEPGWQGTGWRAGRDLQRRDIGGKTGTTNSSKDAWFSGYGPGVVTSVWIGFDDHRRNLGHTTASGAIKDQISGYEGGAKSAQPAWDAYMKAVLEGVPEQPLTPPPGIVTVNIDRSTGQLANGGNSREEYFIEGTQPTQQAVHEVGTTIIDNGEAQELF
Sequence of E. coli PBP3 (P0AD68 whole entry): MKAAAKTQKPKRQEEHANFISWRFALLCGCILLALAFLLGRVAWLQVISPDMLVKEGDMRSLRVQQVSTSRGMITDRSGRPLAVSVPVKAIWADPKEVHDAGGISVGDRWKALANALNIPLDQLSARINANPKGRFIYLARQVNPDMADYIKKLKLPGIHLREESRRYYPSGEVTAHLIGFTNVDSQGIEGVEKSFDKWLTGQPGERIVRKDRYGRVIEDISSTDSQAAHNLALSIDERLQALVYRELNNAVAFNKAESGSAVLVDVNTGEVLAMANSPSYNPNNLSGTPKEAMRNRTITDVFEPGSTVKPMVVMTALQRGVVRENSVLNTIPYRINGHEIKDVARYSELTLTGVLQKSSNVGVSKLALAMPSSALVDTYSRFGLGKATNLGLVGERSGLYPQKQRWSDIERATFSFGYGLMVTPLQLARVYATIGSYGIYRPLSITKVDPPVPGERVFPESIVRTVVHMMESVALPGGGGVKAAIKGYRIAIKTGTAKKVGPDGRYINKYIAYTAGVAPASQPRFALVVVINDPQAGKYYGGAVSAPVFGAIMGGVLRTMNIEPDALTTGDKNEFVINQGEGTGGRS

Compound	EC50 [1, 11]	MIC [2]	EC50 [3]	MIC [4]	MIC [5]	MIC [6]	MIC [7]	MIC [8]	EC50 [9]	MIC [10]	EC50 [1]	EC50 ([1]; assay validation with beta-lactams, PBP 1.5 μM, Bocillin-FL 0.1 μM, read-out: EC50 for PBP3 (reduction of Bocillin-FL binding))	EC50 ([3]; assay validation, Compound A 20 μM, PBP1a/PBP1b 0.1 μM, read-out: EC50 (inhibition of binding of Compound A) PBP1a)	EC50 ([9]; assay validation, Compound A 20 μM, PBP1a/PBP1b 0.1 μM, read-out: EC50 (inhibition of binding of Compound A) PBP1b)
CCN1CCN(C(=O)N[C@H](CCN)C(=O)N[C@H]2Cc3cccc(C(=O)O)c3OB2O)C(=O)C1=O [Example 17, (R)-3-((R)-4-amino-2-(4-ethyl-2,3-dioxopiperazine-1-carboxamido)butanamido)-2-hydroxy-3,4-dihydro-2H-benzo[e][1,2]oxaborinine-8-carboxylic acid, trifluoroacetic acid salt]	> 500 µM	128 to 256 mg/L	< 10 µM	> 512 mg/L	–	–	–	–	–	–	–	–	–	–
CCN1CCN(C(=O)NC(C(=O)N[C@H]2Cc3cccc(C(=O)O)c3OB2O)c2ccc(O)c(O)c2)C(=O)C1=O (stereo partly drawn) [Example 22, (3R)-3-(2-(3,4-dihydroxyphenyl)-2-(4-ethyl-2,3-dioxopiperazine-1-carboxamido)acetamido)-2-hydroxy-3,4-dihydro-2H-benzo[e][1,2]oxaborinine-8-carboxylic acid]	< 30 µM	8 to 16 mg/L (≈ 14.8 to 29.6 µM)	< 10 µM	8 to 16 mg/L (≈ 14.8 to 29.6 µM)	8 to 16 µg/mL	2 to 4 µg/mL	8 to 16 µg/mL	0.5 to 1 µg/mL	< 10 µM	8 to 16 µg/mL	–	–	–	–
CCN1CCN(C(=O)NC(C(=O)N[C@H]2Cc3cccc(C(=O)O)c3OB2O)c2ccc(OC)cc2)C(=O)C1=O (stereo partly drawn) [Example 26, (3R)-3-(2-(4-ethyl-2,3-dioxopiperazine-1-carboxamido)-2-(4-methoxyphenyl)acetamido)-2-hydroxy-3,4-dihydro-2H-benzo[e][1,2]oxaborinine-8-carboxylic acid]	–	128 to 256 mg/L (≈ 238 to 476 µM)	< 10 µM	128 to 256 mg/L (≈ 238 to 476 µM)	–	–	–	–	–	–	30 to 500 µM	–	–	–
CCN1CCN(C(=O)NC(C(=O)N[C@H]2Cc3cccc(C(=O)O)c3OB2O)c2cc(O)c(O)c(Cl)c2)C(=O)C1=O (stereo partly drawn) [Example 45, (3R)-3-(2-(3-chloro-4,5-dihydroxyphenyl)-2-(4-ethyl-2,3-dioxopiperazine-1-carboxamido)acetamido)-2-hydroxy-3,4-dihydro-2H-benzo[e][1,2]oxaborinine-8-carboxylic acid]	< 30 µM	8 to 16 mg/L (≈ 13.9 to 27.8 µM)	< 10 µM	8 to 16 mg/L (≈ 13.9 to 27.8 µM)	8 to 16 µg/mL	8 to 16 µg/mL	8 to 16 µg/mL	0.5 to 1 µg/mL	< 10 µM	8 to 16 µg/mL	–	–	–	–
CCN1CCN(C(=O)NC(C(=O)N[C@H]2Cc3cccc(C(=O)O)c3OB2O)c2ccc(O)c(OCCN)c2)C(=O)C1=O (stereo partly drawn) [Example 49, (3R)-3-(2-(3-(2-aminoethoxy)-4-hydroxyphenyl)-2-(4-ethyl-2,3-dioxopiperazine-1-carboxamido)acetamido)-2-hydroxy-3,4-dihydro-2H-benzo[e][1,2]oxaborinine-8-carboxylic acid]	–	–	< 10 µM	32 to 64 mg/L (≈ 54.9 to 110 µM)	–	–	–	–	–	–	30 to 500 µM	–	–	–
CCN1CCN(C(=O)NC(C(=O)N[C@H]2Cc3cccc(C(=O)O)c3OB2O)c2cc(O)c(O)cc2Cl)C(=O)C1=O (stereo partly drawn) [Example 85, (3R)-3-(2-(2-chloro-4,5-dihydroxyphenyl)-2-(4-ethyl-2,3-dioxopiperazine-1-carboxamido)acetamido)-2-hydroxy-3,4-dihydro-2H-benzo[e][1,2]oxaborinine-8-carboxylic acid]	–	32 to 64 mg/L (≈ 55.7 to 111 µM)	< 10 µM	–	8 to 16 µg/mL	8 to 16 µg/mL	32 to 64 µg/mL	0.5 to 1 µg/mL	< 10 µM	8 to 16 µg/mL	–	–	–	–
CC1(C)S[C@@H]2[C@H](NC(=O)[C@H](N)c3ccccc3)C(=O)N2[C@H]1C(=O)O [ampicillin, reference compound]	–	–	–	–	–	–	–	–	–	–	–	1.4 µM	< 0.5 µM	< 0.5 µM
